Test results published in patent US20200396973A1, “PSORIASIS-INDUCED ANIMAL MODEL AND USE THEREOF” (CUROGEN TECHNOLOGY CO., LTD., priority 2016, published 2020).

Test system: Peli1 transgenic mice (rtTA-Peli1)
Experimental: Tissues of mice were fixed using 10% neutral buffered formalin to produce paraffin blocks. Sections having a thickness of 3 μm were obtained from the paraffin blocks, and then stained with hematoxylin & eosin (H&E). In the case of immunohistochemistry, staining was performed using an anti-K14 antibody, an anti-Ki67 antibody, an anti-CD31 antibody, and an anti-CD3 antibody, followed by mounting using a mounting medium containing a DAPI reagent. Images of the stained tissue samples were acquired using an AxioCam digital microscope camera and AxioVision image processing software (Carl Zeiss).

Question: With `CN(Cc1cnc2nc(N)nc(N)c2n1)c1ccc(C(=O)N[C@@H](CCC(=O)O)C(=O)O)cc1` [methotrexate] as the compound, how does the “thickness of the skin” value (rtTA-Peli1 mice with psoriasis phenotypes after doxycycline, intraperitoneal injection for a certain period, FIG. 8D) read?
Answer: about half of the thickness of the skin was reduced

Question: What about the “increase in the thickness of the skin according to the proliferation of epidermal cells (H&E staining)” value (rtTA-Peli1 mice, doxycycline 12 weeks, after administration of CsA or MTX, FIG. 8B) of the same compound?
Answer: still observed

Question: And the “phenotypes of parakeratosis, hyperkeratosis, rete ridge, and microabscess (skin layer structure, H&E staining)” value (rtTA-Peli1 mice, doxycycline 12 weeks, then CsA 6 times a week or MTX 4 times a week intraperitoneally, FIG. 8B)?
Answer: most of the phenotypes of parakeratosis, hyperkeratosis, rete ridge, and microabscess shown in the Peli1 transgenic mice (rtTA-Peli1) disappeared

Question: What about the psoriasis phenotype score (rtTA-Peli1 mice, doxycycline 12 weeks, then intraperitoneal injection for a certain period, scoring per Table 1, FIG. 8C) of the same compound?
Answer: reduced
